The source made the active and inactive calls. Where only a bound is given, the exact number is not on record here.

This is an account of results in ChEMBL document CHEMBL1201862, “PubChem BioAssay data set” (2004).

One assay is described as follows: cells. The class given is functional, cell-based.
The target in assay [1] is Cyclin-dependent kinase 1 (Homo sapiens, UniProt P06493). The class given is functional.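 Also: Kinome-wide panel profiling, with the target listed as panel member CDC2.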
Assay [2] concerns the target Serine/threonine-protein kinase DCLK1 (Homo sapiens, UniProt O15075). The class given is functional.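 Also: affinity for DCLK1 (listed as DCAMKL1) measured as one member of a kinome-wide kinase profiling panel.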
Assay [3] has as its target cGMP-dependent protein kinase 1 (Homo sapiens, UniProt Q13976). Type of assay: functional.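 Also: value from a kinome panel screen with PRKG1 as the panel member.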
For assay [4], the target named is Tyrosine-protein kinase FRK (Homo sapiens, UniProt P42685). The class given is functional.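 Also: FRK tested as one member of a kinome panel.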
Assay [5] addresses Proto-oncogene tyrosine-protein kinase Src (Homo sapiens, UniProt P12931). Type of assay: functional.
Assay [6] deals with Testis-specific serine/threonine-protein kinase 1 (Homo sapiens, UniProt Q9BXA7). The class given is functional.
The target of assay [7] is Serine/threonine-protein kinase D2 (Homo sapiens, UniProt Q9BZL6). Type of assay: functional.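 Also: measured against PRKD2 as one member of a kinome-wide kinase profiling panel.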
Assay [8] addresses Dual specificity tyrosine-phosphorylation-regulated kinase 4 (Homo sapiens, UniProt Q9NR20). Type of assay: functional.
The target of assay [9] is MAP kinase-interacting serine/threonine-protein kinase 2 (Homo sapiens, UniProt Q9HBH9). The class given is functional.
Assay [10] concerns the target G protein-coupled receptor kinase 5 (Homo sapiens, UniProt P34947). As to the kind of experiment: Navigating the Kinome. Panel member name: GPRK5. Type of assay: functional.
Assay [11] deals with Fibroblast growth factor receptor 3 (Homo sapiens, UniProt P22607). Type of assay: functional.
Assay [12] deals with T1, Interleukin-1 receptor-associated kinase 4 (Homo sapiens, UniProt Q9NWZ3).
T1 sequence (Q9NWZ3 whole entry): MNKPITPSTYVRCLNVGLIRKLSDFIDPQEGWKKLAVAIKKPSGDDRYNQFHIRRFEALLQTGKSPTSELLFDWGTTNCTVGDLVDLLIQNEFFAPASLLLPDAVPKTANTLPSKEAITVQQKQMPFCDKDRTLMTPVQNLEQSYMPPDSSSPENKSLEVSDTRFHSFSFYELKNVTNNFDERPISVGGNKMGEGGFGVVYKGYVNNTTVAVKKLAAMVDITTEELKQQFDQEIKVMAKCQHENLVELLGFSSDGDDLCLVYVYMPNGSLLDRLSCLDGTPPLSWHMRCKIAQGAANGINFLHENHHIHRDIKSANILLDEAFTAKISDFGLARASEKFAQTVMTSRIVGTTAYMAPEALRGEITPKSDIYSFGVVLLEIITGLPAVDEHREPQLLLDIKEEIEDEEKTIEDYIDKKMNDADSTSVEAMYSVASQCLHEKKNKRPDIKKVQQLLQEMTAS
Type of assay: functional.

The target in assay [13] is Interleukin-1 receptor-associated kinase 1 (Homo sapiens, UniProt P51617). The class given is functional.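 Also: IRAK1 tested as one member of a kinome panel.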
Assay [14] concerns the target RAC-alpha serine/threonine-protein kinase (Homo sapiens, UniProt P31749). Type of assay: functional.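 Also: AKT1 affinity measured as one member of a kinome-wide kinase profiling panel.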
Assay [15] has as its target T2, Sentrin-specific protease 7 (Homo sapiens, UniProt Q9BQF6).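 Also: Luminescence-based dose-response confirmation of ultra-high-throughput screening hits, measuring inhibition of SENP7.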
T2 sequence (Q9BQF6 whole entry): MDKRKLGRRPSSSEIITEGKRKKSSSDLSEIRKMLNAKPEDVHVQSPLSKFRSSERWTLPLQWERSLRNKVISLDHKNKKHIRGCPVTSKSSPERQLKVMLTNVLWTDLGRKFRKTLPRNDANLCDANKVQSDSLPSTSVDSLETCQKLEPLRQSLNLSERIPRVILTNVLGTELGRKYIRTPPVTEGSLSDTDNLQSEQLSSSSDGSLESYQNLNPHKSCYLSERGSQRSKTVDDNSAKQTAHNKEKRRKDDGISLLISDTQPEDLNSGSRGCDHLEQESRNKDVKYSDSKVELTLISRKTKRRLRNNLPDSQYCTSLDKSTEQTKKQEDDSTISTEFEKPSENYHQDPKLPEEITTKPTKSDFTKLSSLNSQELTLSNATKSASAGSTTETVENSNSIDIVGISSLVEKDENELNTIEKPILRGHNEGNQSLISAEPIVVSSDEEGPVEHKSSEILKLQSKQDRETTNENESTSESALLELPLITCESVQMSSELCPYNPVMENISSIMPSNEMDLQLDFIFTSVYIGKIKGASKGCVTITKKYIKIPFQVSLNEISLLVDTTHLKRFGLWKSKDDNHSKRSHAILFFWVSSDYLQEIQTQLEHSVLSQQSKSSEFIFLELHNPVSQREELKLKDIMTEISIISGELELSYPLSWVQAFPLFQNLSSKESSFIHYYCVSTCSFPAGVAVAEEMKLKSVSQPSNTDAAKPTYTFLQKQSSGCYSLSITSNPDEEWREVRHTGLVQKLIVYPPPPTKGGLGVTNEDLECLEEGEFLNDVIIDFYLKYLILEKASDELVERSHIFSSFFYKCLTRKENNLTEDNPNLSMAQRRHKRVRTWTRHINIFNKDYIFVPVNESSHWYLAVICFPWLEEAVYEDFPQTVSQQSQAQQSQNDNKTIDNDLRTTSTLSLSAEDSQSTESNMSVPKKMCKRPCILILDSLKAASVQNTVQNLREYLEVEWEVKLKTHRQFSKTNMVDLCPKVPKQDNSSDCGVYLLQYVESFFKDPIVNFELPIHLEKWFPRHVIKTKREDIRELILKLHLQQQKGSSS
Type of assay: functional.

Sequence of cGMP-dependent protein kinase 1 (Q13976 whole entry): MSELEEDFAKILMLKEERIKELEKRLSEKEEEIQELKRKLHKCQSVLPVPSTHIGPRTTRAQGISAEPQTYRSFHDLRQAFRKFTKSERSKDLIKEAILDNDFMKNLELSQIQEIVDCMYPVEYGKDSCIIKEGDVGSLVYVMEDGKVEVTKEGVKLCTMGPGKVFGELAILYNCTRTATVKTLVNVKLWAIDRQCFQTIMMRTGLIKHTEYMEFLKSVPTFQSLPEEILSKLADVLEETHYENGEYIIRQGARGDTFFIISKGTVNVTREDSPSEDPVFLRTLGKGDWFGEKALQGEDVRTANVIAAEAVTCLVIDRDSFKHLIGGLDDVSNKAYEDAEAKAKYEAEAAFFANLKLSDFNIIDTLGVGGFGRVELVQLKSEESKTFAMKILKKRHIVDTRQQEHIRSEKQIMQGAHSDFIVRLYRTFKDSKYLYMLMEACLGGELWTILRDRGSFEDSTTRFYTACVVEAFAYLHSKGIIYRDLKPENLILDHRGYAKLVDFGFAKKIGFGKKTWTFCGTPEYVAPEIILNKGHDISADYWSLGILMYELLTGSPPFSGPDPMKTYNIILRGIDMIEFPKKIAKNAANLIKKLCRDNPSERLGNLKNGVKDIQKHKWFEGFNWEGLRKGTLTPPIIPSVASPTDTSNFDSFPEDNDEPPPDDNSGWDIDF
Sequence of Fibroblast growth factor receptor 3 (P22607 whole entry): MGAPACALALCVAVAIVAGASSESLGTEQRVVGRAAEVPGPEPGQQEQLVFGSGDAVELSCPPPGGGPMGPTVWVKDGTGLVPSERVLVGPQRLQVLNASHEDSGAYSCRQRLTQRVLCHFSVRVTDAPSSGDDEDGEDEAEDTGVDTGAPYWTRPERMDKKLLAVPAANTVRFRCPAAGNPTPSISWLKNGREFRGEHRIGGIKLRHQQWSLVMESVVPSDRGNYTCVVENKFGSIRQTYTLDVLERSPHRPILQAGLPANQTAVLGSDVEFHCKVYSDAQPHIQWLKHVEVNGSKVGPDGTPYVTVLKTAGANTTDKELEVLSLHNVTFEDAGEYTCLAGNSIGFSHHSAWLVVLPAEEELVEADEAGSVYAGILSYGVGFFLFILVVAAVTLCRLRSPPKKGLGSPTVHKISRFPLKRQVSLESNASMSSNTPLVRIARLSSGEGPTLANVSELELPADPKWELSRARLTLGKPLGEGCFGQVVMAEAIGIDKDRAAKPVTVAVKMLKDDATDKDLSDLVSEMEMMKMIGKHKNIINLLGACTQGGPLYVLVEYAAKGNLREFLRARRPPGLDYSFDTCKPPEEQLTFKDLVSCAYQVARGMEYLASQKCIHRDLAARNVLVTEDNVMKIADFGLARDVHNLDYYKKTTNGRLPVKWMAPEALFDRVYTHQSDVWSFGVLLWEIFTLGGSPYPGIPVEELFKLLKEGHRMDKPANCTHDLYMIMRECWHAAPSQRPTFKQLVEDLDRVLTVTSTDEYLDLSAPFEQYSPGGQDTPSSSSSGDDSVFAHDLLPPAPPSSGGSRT
Sequence of Tyrosine-protein kinase FRK (P42685 whole entry): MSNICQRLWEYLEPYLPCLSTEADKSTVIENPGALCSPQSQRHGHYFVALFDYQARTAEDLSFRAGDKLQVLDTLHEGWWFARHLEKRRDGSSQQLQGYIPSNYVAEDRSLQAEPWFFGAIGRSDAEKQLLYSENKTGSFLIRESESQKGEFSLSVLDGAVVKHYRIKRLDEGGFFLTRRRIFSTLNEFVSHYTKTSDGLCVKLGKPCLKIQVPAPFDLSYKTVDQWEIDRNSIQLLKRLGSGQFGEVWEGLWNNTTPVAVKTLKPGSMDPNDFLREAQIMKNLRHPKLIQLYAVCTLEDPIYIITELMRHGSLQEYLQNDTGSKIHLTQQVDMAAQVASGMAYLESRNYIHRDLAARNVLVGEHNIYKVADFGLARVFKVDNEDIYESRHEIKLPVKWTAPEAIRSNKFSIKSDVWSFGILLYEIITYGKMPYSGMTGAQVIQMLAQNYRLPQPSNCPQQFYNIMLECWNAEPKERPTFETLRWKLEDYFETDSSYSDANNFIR
Sequence of Testis-specific serine/threonine-protein kinase 1 (Q9BXA7 whole entry): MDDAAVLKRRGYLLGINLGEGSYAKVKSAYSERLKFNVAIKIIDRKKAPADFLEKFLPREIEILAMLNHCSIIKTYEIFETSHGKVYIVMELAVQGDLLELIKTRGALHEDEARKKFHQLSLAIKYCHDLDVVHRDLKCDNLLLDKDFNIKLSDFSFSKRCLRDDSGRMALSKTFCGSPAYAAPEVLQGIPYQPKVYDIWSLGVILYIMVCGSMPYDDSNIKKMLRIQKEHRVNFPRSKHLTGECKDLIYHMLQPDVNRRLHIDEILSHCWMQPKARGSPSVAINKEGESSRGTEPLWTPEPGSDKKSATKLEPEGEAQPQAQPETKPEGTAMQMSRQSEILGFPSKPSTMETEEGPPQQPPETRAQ
Sequence of Proto-oncogene tyrosine-protein kinase Src (P12931 2-536 limits assumed): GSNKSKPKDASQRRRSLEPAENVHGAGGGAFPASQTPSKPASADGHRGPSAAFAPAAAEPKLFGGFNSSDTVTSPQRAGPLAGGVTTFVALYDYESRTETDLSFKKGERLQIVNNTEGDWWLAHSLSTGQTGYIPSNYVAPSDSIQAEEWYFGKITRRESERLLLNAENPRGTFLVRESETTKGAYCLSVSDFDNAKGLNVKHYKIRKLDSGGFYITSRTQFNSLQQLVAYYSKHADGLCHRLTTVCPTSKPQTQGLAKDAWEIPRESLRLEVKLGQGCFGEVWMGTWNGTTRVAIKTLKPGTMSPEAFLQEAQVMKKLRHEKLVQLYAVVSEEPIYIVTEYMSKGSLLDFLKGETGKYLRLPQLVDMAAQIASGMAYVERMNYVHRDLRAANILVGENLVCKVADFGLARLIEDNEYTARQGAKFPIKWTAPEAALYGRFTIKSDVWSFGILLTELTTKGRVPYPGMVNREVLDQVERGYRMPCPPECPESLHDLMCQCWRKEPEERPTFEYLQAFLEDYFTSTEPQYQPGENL
Sequence of Cyclin-dependent kinase 1 (P06493 whole entry): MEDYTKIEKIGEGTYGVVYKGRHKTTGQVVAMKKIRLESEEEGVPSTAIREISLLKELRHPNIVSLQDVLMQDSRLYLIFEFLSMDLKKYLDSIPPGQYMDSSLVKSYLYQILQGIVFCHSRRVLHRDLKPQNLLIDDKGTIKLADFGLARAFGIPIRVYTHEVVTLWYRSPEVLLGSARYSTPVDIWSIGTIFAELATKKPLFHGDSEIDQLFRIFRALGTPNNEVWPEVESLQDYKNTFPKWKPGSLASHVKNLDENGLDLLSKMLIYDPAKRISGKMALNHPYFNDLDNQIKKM
Sequence of Interleukin-1 receptor-associated kinase 1 (P51617 whole entry): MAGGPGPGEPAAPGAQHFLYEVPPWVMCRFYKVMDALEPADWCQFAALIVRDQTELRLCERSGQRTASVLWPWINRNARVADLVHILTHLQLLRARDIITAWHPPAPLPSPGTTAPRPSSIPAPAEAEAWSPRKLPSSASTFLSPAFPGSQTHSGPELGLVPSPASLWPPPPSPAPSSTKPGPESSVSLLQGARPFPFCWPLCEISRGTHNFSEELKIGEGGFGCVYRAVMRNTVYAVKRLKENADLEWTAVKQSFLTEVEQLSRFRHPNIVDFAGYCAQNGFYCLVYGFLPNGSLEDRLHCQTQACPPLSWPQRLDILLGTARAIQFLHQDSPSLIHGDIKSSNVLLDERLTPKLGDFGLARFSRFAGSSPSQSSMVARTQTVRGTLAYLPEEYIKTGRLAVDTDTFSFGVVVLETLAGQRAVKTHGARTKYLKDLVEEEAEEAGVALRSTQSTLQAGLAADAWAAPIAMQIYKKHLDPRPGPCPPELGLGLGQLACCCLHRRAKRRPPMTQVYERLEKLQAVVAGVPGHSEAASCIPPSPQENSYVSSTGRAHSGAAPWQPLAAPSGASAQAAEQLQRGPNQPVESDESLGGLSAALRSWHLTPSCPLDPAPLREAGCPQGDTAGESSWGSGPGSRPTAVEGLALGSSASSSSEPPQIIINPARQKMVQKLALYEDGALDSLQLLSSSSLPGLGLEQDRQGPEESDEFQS
Sequence of RAC-alpha serine/threonine-protein kinase (P31749 whole entry): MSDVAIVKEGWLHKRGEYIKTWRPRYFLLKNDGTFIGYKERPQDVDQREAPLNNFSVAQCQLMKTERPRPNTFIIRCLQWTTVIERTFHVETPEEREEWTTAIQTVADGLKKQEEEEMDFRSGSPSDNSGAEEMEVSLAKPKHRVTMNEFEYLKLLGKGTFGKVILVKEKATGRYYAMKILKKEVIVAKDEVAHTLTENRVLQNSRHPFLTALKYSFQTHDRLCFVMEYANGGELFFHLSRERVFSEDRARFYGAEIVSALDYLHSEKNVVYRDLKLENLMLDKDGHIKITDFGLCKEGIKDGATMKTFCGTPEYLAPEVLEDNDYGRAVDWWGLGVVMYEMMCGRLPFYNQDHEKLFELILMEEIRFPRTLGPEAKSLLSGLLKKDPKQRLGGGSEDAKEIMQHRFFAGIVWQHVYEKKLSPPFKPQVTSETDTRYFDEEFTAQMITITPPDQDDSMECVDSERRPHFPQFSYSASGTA
Sequence of MAP kinase-interacting serine/threonine-protein kinase 2 (Q9HBH9 whole entry): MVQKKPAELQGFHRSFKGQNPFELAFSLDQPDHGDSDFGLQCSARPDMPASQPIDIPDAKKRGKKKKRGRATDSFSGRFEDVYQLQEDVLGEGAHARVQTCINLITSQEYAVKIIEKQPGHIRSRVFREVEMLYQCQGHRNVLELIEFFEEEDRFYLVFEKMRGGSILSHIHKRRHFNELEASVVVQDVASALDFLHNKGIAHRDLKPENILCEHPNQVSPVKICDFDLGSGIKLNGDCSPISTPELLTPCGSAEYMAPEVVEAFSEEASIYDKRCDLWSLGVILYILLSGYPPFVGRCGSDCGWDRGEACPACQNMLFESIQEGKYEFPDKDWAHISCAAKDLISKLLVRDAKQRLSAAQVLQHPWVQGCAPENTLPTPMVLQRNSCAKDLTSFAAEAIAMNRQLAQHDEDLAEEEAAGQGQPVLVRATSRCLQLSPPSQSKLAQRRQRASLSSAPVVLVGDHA

With `Cc1cc(NC(c2ccc(Cl)cc2)c2ccc3cccnc3c2O)no1` (stereo unspecified), the concentration giving a half-maximal response (EC50) (usually the midpoint of the concentration-response curve) in the assay “cells” was 6450 nM (active).
With `CS(=O)(=O)N(Cc1ccc2[nH]c(=O)c3cccn3c2c1)C1CC1`, the Ki (in general, the equilibrium dissociation constant of an inhibitor or competing ligand from its target) is > 7940 nM (inactive) in [1]; > 10000 nM (inactive) in assay [2]; 251 nM (active) in assay [3]; > 2510 nM (inactive) in assay [4]; 1260 nM (active) in assay [5]; > 1580 nM (inactive) in assay [6]. For the same compound, the Ki was 200 nM (active) in assay [7]; 39.8 nM (active) in assay [8]; 794 nM (active) in assay [9]; > 3980 nM (inactive) in assay [10]; > 2000 nM (inactive) in assay [11]; > 10000 nM (inactive) in [12]. In addition, the Ki was 158 nM (active) in [13] and 31.6 nM (active) in assay [14].
In the case of `OCC[n+]1c2ccccc2nc2ccc(N3CCOCC3)cc21`, in assay [15], the half-maximal inhibitory concentration (IC50) – broadly, the point on the concentration scale where inhibition reaches its midpoint – is 28000 nM (active).
